Molecular target: T1, EGFR (ErbB1) d746-750 (Homo sapiens, UniProt P00533, DEL746-750)
T1 construct: purchased Thermo Fisher Scientific (Life Technologies) SelectScreen
Test: SelectScreen LanthaScreen
Format: binding
Conditions: 1 µM
Outline: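 SelectScreen broad panel; activity (Z'LYTE, Adapta) plus binding formats. ATP: Km app for CSF1R Z'LYTE; 10 for CAMK1 Adapta. Readout = % per kinase.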

T1 sequence (P00533 with tags, fused parts or gaps DEL746-750 limits assumed): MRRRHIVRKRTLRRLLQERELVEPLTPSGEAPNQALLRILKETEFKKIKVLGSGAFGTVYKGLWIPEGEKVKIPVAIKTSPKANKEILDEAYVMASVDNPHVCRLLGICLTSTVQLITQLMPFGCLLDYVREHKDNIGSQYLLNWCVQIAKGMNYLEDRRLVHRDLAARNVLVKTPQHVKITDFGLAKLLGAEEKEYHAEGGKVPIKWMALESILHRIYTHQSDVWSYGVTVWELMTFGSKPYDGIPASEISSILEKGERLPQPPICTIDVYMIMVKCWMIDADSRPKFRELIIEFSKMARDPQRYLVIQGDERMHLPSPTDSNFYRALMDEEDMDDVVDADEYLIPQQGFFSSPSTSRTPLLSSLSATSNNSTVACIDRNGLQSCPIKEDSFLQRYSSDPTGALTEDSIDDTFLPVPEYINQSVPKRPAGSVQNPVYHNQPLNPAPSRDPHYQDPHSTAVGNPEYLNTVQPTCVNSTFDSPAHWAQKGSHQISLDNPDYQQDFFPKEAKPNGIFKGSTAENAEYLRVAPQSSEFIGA

CN(C(=O)CN1CCOCC1)c1ccc2sc3c(-c4cccc5c(=O)cc(N6CC7CCC(C6)O7)oc45)cccc3c2c1 [NU5455]
% displacement: 5.8%
